Literature values, collected in patent publication US20140271529A1, “ANTIFUNGAL COMPOSITIONS FOR THE TREATMENT OF SECONDARY SKIN AND NAIL INFECTIONS” (ALC Therapeutics, LLC, priority 2013, published 2014).

Tests used:
[1] = human, in vivo
[2] = 14C-labelled griseofulvin dissolved in the solvent; human skin in vitro

| Compound | acute paronychia, patients affected [1] [%] | ratios of penetration of griseofulvin in the various solvents [2] |
| --- | --- | --- |
| panitumumab | ≤ 45 | – |
| c1ccccc1 [benzene] | – | 1 |
| C[S+](C)[O-] [DMSO, dimethylsulfoxide] | – | 60 |
| CN(C)C=O [dimethylformamide] | – | 7 |
| CCO [alcohol] | – | 3 |
